According to patent US6469028B1, “Synthesis and use of retinoid compounds having negative hormone and/or anatgonist activities” (Allergan, Inc., priority 1995, dated 2002):

What was measured:
ER-RXR-α = test: Example 11: ER-RXR-α alone, ERE-tk-Luc, CV-1 cells
hairless mice = test: Example 2: skin irritation and weight loss by oral agonist, topical antagonist; type: in vivo
Description: Mice were simultaneously treated topically on the dorsal skin with vehicle (97.6% acetone/2.4% dimethylsulfoxide) or solutions of AGN 193109 in vehicle (6 ml/kg). Specific doses for the different treatment groups are give in Table 8. Treatments were administered daily for 4 consecutive days. Mice were weighed and graded for topical irritation daily as described in Example 1 up to and including 1 day after the last treatment. Percent body weight change is calculated by subtracting […], dividing by initial body weight, and multiplying by 100%. Topical irritation scores are calculated as described in Example 1.

rabbits = test: Example 24: rabbit model of proliferative vitreoretinopathy (PVR); type: in vivo
[1] = target: T1, RAR-α and RXR-α with DR-5 RARE probe (Homo sapiens, UniProt P10276); test: Example 9: gel shift analysis; type: biochemical; conditions: prebound with AGN 193109 (10^−6 M)
T1 construct: made in house; host or cells: reticulocyte lysate in vitro transcription-translation
T1 sequence (P10276 whole entry): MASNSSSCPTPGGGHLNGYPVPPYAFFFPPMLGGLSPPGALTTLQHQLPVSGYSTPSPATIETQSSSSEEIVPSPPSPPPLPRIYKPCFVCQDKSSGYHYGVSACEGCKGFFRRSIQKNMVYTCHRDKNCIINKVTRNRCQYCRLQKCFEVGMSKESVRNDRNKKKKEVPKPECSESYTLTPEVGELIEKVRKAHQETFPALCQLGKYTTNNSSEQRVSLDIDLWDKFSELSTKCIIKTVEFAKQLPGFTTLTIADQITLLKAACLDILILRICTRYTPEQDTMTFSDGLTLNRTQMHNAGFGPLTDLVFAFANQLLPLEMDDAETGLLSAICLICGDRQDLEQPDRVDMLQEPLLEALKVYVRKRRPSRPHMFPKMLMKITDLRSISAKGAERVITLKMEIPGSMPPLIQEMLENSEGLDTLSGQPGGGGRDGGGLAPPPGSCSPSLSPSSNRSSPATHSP
T1 sequence (P19793 whole entry partner): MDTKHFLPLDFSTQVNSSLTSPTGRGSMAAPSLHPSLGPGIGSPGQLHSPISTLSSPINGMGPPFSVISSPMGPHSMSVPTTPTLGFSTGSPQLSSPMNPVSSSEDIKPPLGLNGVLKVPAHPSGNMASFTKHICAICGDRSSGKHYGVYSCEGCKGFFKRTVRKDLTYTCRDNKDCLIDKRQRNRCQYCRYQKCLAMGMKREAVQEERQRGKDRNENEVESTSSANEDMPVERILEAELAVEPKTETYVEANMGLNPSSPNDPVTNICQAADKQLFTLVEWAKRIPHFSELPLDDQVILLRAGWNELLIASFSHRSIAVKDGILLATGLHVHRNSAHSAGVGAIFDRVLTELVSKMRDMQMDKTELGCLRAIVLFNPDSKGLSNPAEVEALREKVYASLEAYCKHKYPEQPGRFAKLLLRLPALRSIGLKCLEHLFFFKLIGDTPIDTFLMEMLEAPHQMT
Excerpt: In vitro translated RAR-α was produced essentially as described under Example 8, except that ^35S-labeled methoinine was omitted. In vitro translated RXR-α was similarly produced using a pBluescript(II)(SK)-based vector containing the RXR-α cDNA described by Mangelsdorf, et al. in Nature 345:224-229 (1990) as the template for generating in vitro transcripts. […] The binding mixture was electrophoresed on a non-denaturing polyacrylamide gel and autoradiographed according to standard laboratory procedures. A single retarded species appearing on the autoradiograph that was common to all the lanes on the gel represented an undefined probe-binding factor present in the reticulocyte lysate. Only the RAR/RXR combination gave rise to a retinoid receptor-specific retarded species. Neither RAR alone nor RXR alone bound the probe to produce this shifted species.

RXRs = test: Affinity for the RXRs; type: binding
guinea pigs = test: Example 5: premature epiphyseal plate closure (bone toxicity); type: in vivo; conditions: AGN 191183 0.06 mg/ml + AGN 193109 0.34 mg/ml (5-fold molar excess), osmotic pump, 14 days
Description: The osmotic pumps are designed by the manufacturer to deliver ˜5 μl of solution per hour continuously for 14 days.
The animals were euthanized by carbon dioxide asphyxiation 14 days after implantation. The left tibia was removed and placed in 10% buffered formalin. The tibias were decalcified by exposure to a formic acid/formalin solution for 3-4 days, and paraffin sections were prepared. Sections were stained with hematoxylin and eosin by standard methods. The proximal tibial epiphyseal plate was examined and scored as closed or not closed. Epiphyseal plate closure is defined for this purpose as any interruption of the continuity of the epiphyseal growth plate cartilage, i.e., replacement by bone and/or fibroblastic tissue.

[2] = system: cervical carcinoma patients; test: Example 23: clinical study in cervical carcinoma patients with metastatic disease; type: in vivo, human; conditions: maximum tolerated dose every other day, three months to one year
Description: Patients are divided into two groups. The first group is a control group while members of the second group are treated with AGN 193109. AGN 193109 is combined with a pharmaceutically acceptable excipient to produce a composition suitable for systemic administration, all according to techniques that will be familiar to one having ordinary skill in the art. The control group is administered a placebo formulation and the experimental group is administered with the formulation containing the AGN 193109 negative hormone. Dosing of patients is at the maximum tolerated dose and is performed every other day for a period of from three months to one year. The outcome of the study is quantified via measurement of disease-free survival over time.

[3] = system: TPA-induced AP-1 activity; test: Example 15: anti-AP-1 activity, Str-AP1-CAT in HeLa cells; type: cell-based
Description: HeLa cells were transfected with 1 μg of Str-AP1-CAT using LIPOFECTAMINE according to the method described by Nagpal et al. in J. Biol. Chem. 270:923 (1995). Transfected cells were treated with AGN 193109 alone (10^−9 to 10^−7 M), 1,25-dihydroxyvitamin D3 alone (10^−12 to 10^−7 M) or 1,25-dihydroxyvitamin D3 (10^−12 to 10^−7 M) in the presence of 10^−8 M AGN 193109.

[4] = system: retinal pigment epithelium (RPE) cells; test: Example 19: proliferation of primary retinal pigment epithelium cultures; type: cell-based, human
Description: Primary cultures of human retinal pigment epithelium (RPE) were established according to the method described by Campochiaro et al. in Invest. Opthal & Vis. Sci. 32:65 (1991). 5×10^4 cells were plated in 16-mm wells of 24-well multiwell plates in DMEM (Gibco) containing 5% FBS. […] Cells were fed with fresh media containing the appropriate concentrations of these compounds every two days for a total of five days of treatment. Cells were removed from the plates by gentle digestion with trypsin and the number of cells was counted with an electronic cell counter.
AGN 193109 was tested for its ability to potentiate the anti-proliferative effect of 13-cis retinoic acid (13-cis RA) in primary RPE cultures using conditions and techniques to measure RPE cell proliferation described above. […] More particularly, 13-cis RA is useful in the treatment of several disease states, including acne (Peck et al. N. Engl. J. Med. 300:329 (1977); Jones et al. Br. J. Dermatol. 108:333 (1980)), and squamous cell carcinoma of the skin and cervix in combination treatment with interferon 2α (Lippman et al. J. Natl. Cancer Inst. 84:241 (1992); Moore et al. Seminars in Hematology 31:31 (1994)).
We next tested the ability of AGN 193109 to potentiate the activities of other nuclear receptor hormones in primary RPE cell cultures. Dexamethasone, a synthetic glucocorticoid receptor agonist, is one member of a class of compounds that have been used clinically for their potent anti-inflammatory and immunosuppressive properties. Thyroid hormone (T3; […]) is a natural thyroid hormone receptor agonist used primarily for hormone replacement therapy in the treatment of hypothyroidism.

[5] = group E: topical AGN 193109 0.47 mg/kg/d alone

SMILES: Cc1ccc(C2=CCC(C)(C)c3ccc(C#Cc4ccc(C(=O)O)cc4)cc32)cc1 [Compound 60, 4-[(5,6-dihydro-5,5-dimethyl-8-(4-methylphenyl)-2-naphthalenyl)ethynyl]benzoic acid]
- luciferase expression levels (ER-RXR-α; cells transfected only with ER-RXR-α, AGN 193109 as high as 10^−6 M): approximately 8,000 rlu
- luciferase activity (ER-RXR-α; reporter and chimeric receptor without RAR-γ-VP-16): did not exhibit any effect on luciferase activity
- Topical Irritation Score (hairless mice; group C: topical AGN 193109 […] + oral AGN 191183 0.26 mg/kg/d): 1 ± 1
- % Weight Gain or (Loss) (hairless mice; group C: topical AGN 193109 […] + oral AGN 191183 0.26 mg/kg/d, parentheses = loss): (9 ± 5) %
- Topical Irritation Score (hairless mice; group D: topical AGN 193109 0.47 mg/kg/d + oral AGN 191183 0.26 mg/kg/d): 0 ± 1
- % Weight Gain or (Loss) (hairless mice; group D: topical AGN 193109 0.47 mg/kg/d + oral AGN 191183 0.26 mg/kg/d, parentheses = loss): (3 ± 5) %
- % Weight Gain or (Loss) (hairless mice; [5]): 3 ± 3%
- Topical Irritation Score (hairless mice; [5]): 0 ± 0
- frequency and severity of tractional retinal detachment (rabbits; AGN 193109 100 μg + retinoic acid 10 μg intravitreal): significantly reduced frequency and severity of retinal detachment
- incidence and severity of retinal detachment (rabbits; second study, AGN 193109 100 μg + thyroid hormone 100 μg): significantly reduced incidence and severity of retinal detachment
- retinal detachment compared with control rabbits (rabbits; second study, single agent 100 μg intravitreal): does not inhibit retinal detachment
- RAR/RXR retarded species on DR-5 RARE probe [1]: did not diminish this interaction
- affinity for the RXRs (RXRs): no measurable affinity
- epiphyseal plate closure (guinea pigs): completely blocked AGN 191183-induced bone toxicity
- disease-free survival [2]: significant increase in disease-free survival
- anti-AP-1 activity ([3]; AGN 193109 alone, 10^−9 to 10^−7 M): no detectable anti-AP-1 activity
- anti-AP-1 activity of 1,25-dihydroxyvitamin D3 ([3]; in the presence of 10^−8 M AGN 193109): anti-AP-1 activity was detectable at 10^−10 and 10^−9 M 1,25-dihydroxyvitamin D3
- enhancement of the antiproliferative activity of ATRA ([4]; 10^−10 M ATRA with 10^−7 M AGN 193109 equals 10^−8 M ATRA alone): approximately 100 fold
- potency of 13-cis RA in repression of RPE cell proliferation ([4]; AGN 193109 10^−8 or 10^−6M with 13-cis RA 10^−12 to 10^−6M): dramatically increased the potency of 13-cis RA
- growth rate of the RPE cells ([4]; AGN 193109 alone, 10^−10 to 10^−6 M): did not substantially alter the growth rate of the RPE cells
- RPE cell proliferation ([4]; dexamethasone 10^−11 to 10^−6M with 10^−8 or 10^−6M AGN 193109): repressed RPE cell proliferation to an extent that approximated the inhibition caused by treatment with ATRA
- RPE cell proliferation ([4]; thyroid hormone 10^−11 to 10^−6M with AGN 193109 10^−8 or 10^−6M): inhibited RPE cell proliferation in a thyroid hormone dependent manner
